Results published in patent US11357777B2, “Use of sGC stimulators for the treatment of nonalcoholic steatohepatitis (NASH)” (Cyclerion Therapeutics, Inc., priority 2016, dated 2022).
“Also recorded” adds a separate entry of the source. Like-named read-outs stand apart in the source and are kept apart here. Each block holds one molecule with its values, some of them ahead of it.

Experiments:
[1] = tested on: rat animal model of NASH; conditions: cited from earlier work
[2] = tested on: OB/OB mice; conditions: cited from earlier work
[3] = tested on: human brown adipocytes; conditions: cited from earlier work
[4] = tested on: primary white adipocytes; conditions: cited from earlier work
[5] = tested on: WT mice fed a high fat diet (HFD); conditions: cited from earlier work
[6] = tested on: alpha-SMA (alpha-smooth muscle actin) mRNA expression; assay: CCl4-induced changes in liver fibrosis marker in C57BL/6 mice; format: in vivo
Protocol: A pilot study using male C57BL/6 mice was carried out to explore the changes in liver fibrosis biomarker after one single injection of carbon tetrachloride (CCl4) given by intraperitoneal (IP) administration and the effect of several substances, including an sGC stimulator, in this model. Injection of CCl4 in mice results in elevation of alpha-SMA (alpha-smooth muscle actin) mRNA expression and this can be used as a biomarker of fibrosis in the liver. A reduction in the expression levels of this biomarker and reversal towards the normal levels, upon administration of an sGC stimulator, can be used to assess the potential utility of the compound in the treatment of liver fibrosis.
Mice used were 8 weeks old at receipt, healthy, and unused in other experimental procedures. Housing and care were as specified in the USDA Animal Welfare Act (9 CFR, Parts 1, and 3) and as described in the Guide for the Care and Use of Laboratory Animals from the National Research Council. Environmental conditions in housing rooms were set at the following ranges for acclimation and naive groups: temperature: 68±5° F. […], humidity: 50±:20%; light cycle: 12 hour light/12-hour dark; air changes: ten or more changes per hour with 100% HEPA filtered fresh air. Mice were given regular chow and water ad libitum and were not fasted overnight prior to compound administration.
CCl4 was dosed once to all animals, via intraperitoneal administration (IP) at a concentration of 15 μl (dissolved in 85 μl of corn or olive oil) and a dose volume of 100 μl per 30 g of mouse. Compound A was dosed to mice via oral administration (PO, by oral gavage), BID for 3 days at a concentration of 3 mg/mL (0.5% Methylcellulose) and a dose volume of […]. The single dose of CCl4 was administered two hours after the first dose of Compound A. The second dose of Compound A was administered 7 hours after the first dose. After three days of dosing, the animals were sacrificed and plasma and liver samples obtained for analysis.
Total RNA was extracted from isolated tissues by adding 1 ml Trizol and a stainless steel bead to each sample, and homogenized using a TissueLyser II at the highest speed (30 Hz) for 2 minutes at room temperature. After homogenization, 200 μl chloroform was added to each homogenized sample. The homogenate was vortexed briefly and left in an upright position at room temperature for 2-5 minutes until phase separation became visible by eye. Samples were centrifuged for 15 minutes at the highest speed (13,200 rpm) at 4° C. in an Eppendorf centrifuge.
After 15 minutes at the highest speed (13,200 rpm) centrifugation at 4° C., the supernatant of each sample (˜500 μl) was transferred into a new RNase-free tube. […]

[7] = Distribution of sGC stimulators in tissues, rats (liver and plasma by LC-MS/MS); format: in vivo; conditions: Wistar, rat, 2 h post fifth dose, male rats, read-out: total Liver:Plasma ratio
Protocol: The purpose of this experiment was to determine compound concentrations in the plasma and tissues of animals dosed with sGC stimulators for 5 days Q.D.
In a first experiment, the sGC stimulator Compound B (described previously in Example 2) was dosed for 5 Days Q.D. to male Wister rats. Rats were divided into four study groups and dosed according to the below table:
The animals were dosed daily for five consecutive days according the table above. On each day of dosing, frozen aliquots of each dosing solution were thawed and the animals were weighed and dosed accordingly. On day 5, two hours post the fifth dose, blood was collected by orbital bleed. Blood samples were collected in EDTA tubes pre-loaded with 5 μL of 100 mM IBMX Plasma was be separated by centrifugation for 10 minutes at 4° C. and then stored at −80° C.
A Ketamine/Xylazine/pbs solution as a 5:1:4 ratio was administered I.P. at 1 ul per gram. Once the rat was fully anesthetized (as determined by checking its reflexes) and while the heart was still beating, a needle was inserted into the left ventricle. Approximately 20 mls of PBS/IBMX/heparin solution were then perfused. The right atrium was snipped, and perfusion continued for approximately 10 additional mls (30 mls total). At this point, the femoral artery was snipped and perfusion was continued until there was no longer blood (only clear fluid) collecting in the abdominal cavity. Several tissues, including liver, were isolated and weighed followed by snap freezing.
A second separate and similar experiment was carried out with Compound C. The structure of Compound C is depicted below. The preparation and characterization of this compound was described in patent application publication WO2014144100, published 18 Sep. 2014.
For this second experiment, rats were divided into four study groups and dosed according to the below table:
Samples were analyzed using liquid chromatography (LC) with tandem mass spectrometric detection (MS/MS) using positive electrospray ionization. The standard curve range was from 0.1 to 400 ng/mL. […]
In order to prepare the tissues for measurement, the naïve livers and the livers isolated after treatment were removed from the −80° C. freezer and placed on liquid nitrogen. The liver weight was recorded and then the tissue placed in a Geno grinding vial containing two 7/16″ steel beads. […] Approximately 200 mg of tissue from each sample was weighed and recorded. […] The samples were analyzed by LC-MS/MS.
Total liver and plasma concentrations were measured and liver concentrations were corrected for total liver weight. Liver: Plasma ratios were determined by dividing liver compound concentration by the plasma compound concentration. […]

[8] = 8 weeks at 300 mg/kg/24 hours in food and intraperitoneally at 1 mg/kg

SMILES: CC(=O)N[C@@H](CSN=O)C(=O)O [SNAP, S-Nitroso-N-acetylcysteine]
onset of NASH [1]: prevent the onset of NASH
effect on NASH [2]: prevent and reverse NASH

SMILES: Nc1nc(-c2nn(Cc3ccccc3F)c3ncccc23)nc(N)c1N1CCOCC1 [BAY 41-8543]
differentiation of human brown adipocytes [3]: enhances
browning of primary white adipocytes [4]: induces ‘browning’; also recorded: induces “browning”
lipid uptake into BAT [5, 8]: enhances
whole-body energy expenditure [5, 8]: increases
triglyceride content in the liver ([5]; WT mice fed a HFD, obese phenotype, compared to mice fed regular chow): significant reduction
diabetic phenotype ([5]; mouse, in vivo): improves
diet-induced weight gain and liver steatosis ([5]; mouse, in vivo): protects against
weight loss in established obesity ([5]; mouse, in vivo): induces weight loss

SMILES: Cc1ccc(=O)n(-c2ccccc2)c1 [pirfenidone, reference compound]
relative reduction of the increased alpha-SMA mRNA expression levels ([6]; 400 mg/kg dose): about 20%

SMILES: NC(=O)[C@@](O)(CNc1nc(-c2cc(-c3ccon3)n(Cc3ccccc3F)n2)ncc1F)C(F)(F)F [Compound A]
relative reduction of the increased alpha-SMA mRNA expression levels ([6]; 30 mg/kg dose): about 66%
reduction of alpha-SMA expression compared with pirfenidone-treated samples ([6]; PO BID for 3 days, single IP CCl4): significantly more pronounced
reduction of elevated levels of alpha-SMA expression compared to vehicle ([6]; PO BID for 3 days, single IP CCl4, vs vehicle (0.5% methyl cellulose)): statistically significant reduction

Kp ([7]; 1 mg/kg PO Q.D. 5 days): 6
Kp ([7]; 10 mg/kg PO Q.D. 5 days): 8
SMILES: NC(=O)[C@](O)(CNc1nc(-c2cc(-c3ccon3)n(Cc3ccccc3F)n2)ncc1F)C(F)(F)F [Compound C]
